Entries after “also recorded” stand apart in the source; their conditions may differ.
Legend:
VSV/HIV = assay type: cell-based
CD4^+ CEM cells = test: Binding of 125I-labeled gp120 to CEM cells; set-up: species or system human
Method: A. The binding of ^125I-labeled gp120 to CEM cells. […] The cells were then washed as described in “Materials and Methods” and processed for analysis of the bound gp120.
Recombinant gp120 (Neosystem, Strasbourg, France) was radioiodinated with the Bolton-Hunter reagent (New England Nuclear-Du Pont, Boston, Mass.) according to the technique described by the manufacturer. To study the binding of gp120 to the CD4 receptor, CEM cells (5×10^6) which express high levels of CD4 were incubated in the culture medium with ^125I-labeled gp120 (50 ng; 10 Ci/mg) at 37° C. for 1 hour. Cells were then washed twice in PBS (5 ml) and cytoplasmic extracts were prepared by disruption of cell pellets in buffer E ([…]). Aliquots ([…]; corresponding to material from 10^6 cells) were diluted in two-fold concentrated electrophoresis buffer and were analyzed by SDS/PAGE. […] The ^125I-labeled gp120 band was also quantitated in a Phosphorimager (Molecular Dynamics, Sunnyvale, Calif.).

[1] = test system: HIV-1 ELI, Ba-L, SF162, UGO29A, and Retrovir resistant isolate; test: Infection of PBMC by different HIV-1 isolates (p24 in culture medium); assay type: cell-based; conditions: p24 at 6 days post-infection, range over the isolates, read-out: IC50 values, virus production in PBMC
Source text: Virus production was monitored by the concentration of p24 in the culture medium at 6 days post-infection (3 +L0). The HIV-1 isolates were:
Virus production was monitored by the concentration of p24 in the culture medium at 7 days post-infection.

HIV-1 Lai [2] = test: Inhibition of HIV-1 Lai infection of CEM cells (p24 production); assay type: cell-based
Method: Infection of CEM cells with the HIV-1 Lai isolate was carried out as described previously (Callebaut et al., 1996). For the assay of the inhibitory effect of rabbit antisera or purified antibodies, CEM cells were first incubated (15-30 min, at room temperature) in the presence of different concentrations of each antibody preparation before infection using 0.2 synchronous dose of HIV-1 Lai as described before (Laurent-Crawford and Hovanessian, 1993). HIV production was estimated at different days post-infection (p.i.) by monitoring the HIV-1 major core protein p24 in the culture supernatant (Callebaut et al., 1996). The concentration of p24 was measured by p24 Core Profile ELISA (Du Pont). For a single cycle of HIV, AZT ([…]) was added at 8 hr post-infection to inhibit multiple cycles of virus infection; HIV production was monitored at 4 days post-infection (Laurent-Crawford and Hovanessian, 1993).

HIV-1 Lai [3] = test: HIV entry into HeLa P4 / P4-C5 cells (β-galactosidase activity), HIV-1 Lai; assay type: cell-based
SIVmac = SIVmac entry into HeLa cells (β-galactosidase); assay type: cell-based, SIV; conditions: β-galactosidase at 48 hours
CEM cells = test: FACS binding of labeled TASP constructs to the cell-surface ligand; set-up: species or system human; conditions: biotin-labeled constructs, dose for 50% labeling, read-out: Affinity to bind TASP-ligand (EC50), 50% effective dose
Source text: (§1) The cells were then washed twice with FACS buffer and fixed in 1% formaldehyde in FACS buffer. […] The fluorescence intensity was monitored by FACS analysis using Lysis II Software in FIGS. 3/4 and Tables 1/2, or Cell Quest™ Software (Beckton Dickinson and Apple Computer) in FIG. 5 +L.

HIV-1 Bal = test: HIV entry into HeLa P4-C5 cells (β-galactosidase), HIV-1 Ba-L; assay type: cell-based; conditions: HeLa P4-C5, HIV-1 Bal; read-out: IC50, inhibition of HIV entry
HIV-1 Ada-M = test: Infection of PBMC by HIV-1 Ada-M (p24); assay type: cell-based; conditions: p24 at 6 days post-infection
Source text: Virus production was monitored by the concentration of p24 in the culture medium at 6 days post-infection (3 +L0).

cell-surface P95 = cell-surface P95 (Homo sapiens, UniProt P19338); test: Recovery of cell-surface P95 complexed to biotin-labeled 5[Kψ(CH2N)PR]-TASP, competition by unlabeled constructs; conditions: 50 μM unlabeled, 5 μM biotin-labeled 5[Kψ(CH2N)PR]-TASP
Chain of cell-surface P95 (P19338 whole entry): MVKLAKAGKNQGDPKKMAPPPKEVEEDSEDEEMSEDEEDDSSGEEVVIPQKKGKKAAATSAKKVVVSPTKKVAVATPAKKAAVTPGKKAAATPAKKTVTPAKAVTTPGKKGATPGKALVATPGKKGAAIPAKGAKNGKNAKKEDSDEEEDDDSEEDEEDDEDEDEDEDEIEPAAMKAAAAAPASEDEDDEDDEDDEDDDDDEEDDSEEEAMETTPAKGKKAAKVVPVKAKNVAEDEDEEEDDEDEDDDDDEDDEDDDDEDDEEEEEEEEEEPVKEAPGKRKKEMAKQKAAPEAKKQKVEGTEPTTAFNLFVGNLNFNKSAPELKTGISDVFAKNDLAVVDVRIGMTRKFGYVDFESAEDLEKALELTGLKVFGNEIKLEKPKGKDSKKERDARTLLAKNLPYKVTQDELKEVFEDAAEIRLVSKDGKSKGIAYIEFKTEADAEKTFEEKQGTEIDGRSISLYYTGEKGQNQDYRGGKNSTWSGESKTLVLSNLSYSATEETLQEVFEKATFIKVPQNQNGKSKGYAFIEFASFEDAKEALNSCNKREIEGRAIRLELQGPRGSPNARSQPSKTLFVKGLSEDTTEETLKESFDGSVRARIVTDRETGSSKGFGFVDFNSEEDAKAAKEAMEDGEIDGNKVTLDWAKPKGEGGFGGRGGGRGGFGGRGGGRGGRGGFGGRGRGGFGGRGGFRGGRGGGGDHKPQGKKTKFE
Method: Cells were then washed extensively before preparation of cell extracts. The complexes formed between the biotin-labeled TASP constructs and any cell-surface protein were then recovered by purification using avidin-agarose (“Materials and Methods”). […] Lane 1 “Extract” represents the ligand blot analysis of crude CEM cell extracts; material corresponding to 10^6 cells.
Cells were then washed in FACS buffer (2×15 ml) and nucleus-free cell extracts were prepared using buffer E (150 ml). Such extracts were first diluted in PBS containing 1 mM EDTA (600 μl) before the addition of 100 μl avidin-agarose (ImmunoPure Immobilized Avidin from Pierce Chemical Company, U.S.A.) to capture the biotin-labeled TASP complexed to its cell surface ligand(s). These suspensions were incubated at 4° C. for 2 hr, and the avidin-agarose bound proteins were washed batchwise with PBS containing 1 mM EDTA (5×5 ml). Finally, the avidin-agarose pellet was resuspended in 100 ml of 2-fold concentrated electrophoresis sample buffer and heated at 95° C. for 5 min.

[4] = test system: HIV-1 pseudotyped Mo-MLV virus; test: Infection of CEM cells by HIV-1 pseudotyped Mo-MLV virus (p24); conditions: p24 at 48 hours p.i., AZT 5 μM, TASP 5 μM
Method: CEM cells (2×10^5) were infected with the HIV-1 pseudoryped Mo-MLV virus (Experimental procedure) at 95 ng of p24/ml, in the absence (histogram Control) or presence of different additions (as indicated). The infection was monitored by the production of p24, which was measured in the culture supernatant at 48 hours p.i. The mean±SD of duplicate samples is given. Treatment of cells with the different antibodies was as in FIG. 6 +L. For a control of infection, cells were pretreated with 5 μM AZT before infection.
Hela cells were cotransfected by electroporation with plasmids pNL4-3 defective in env gene (Borman et al., 1995) and pE4070A expressing amphotrope envelope glycoproteins of Mo-MLV (Battini et al., 1996). Electroporation (Schwartz et al., 1996) was performed at 200 V, 960 μF, using a 4 mm wide cuvettes in a BIO-Rad Gene Pulser. The pseudotyped virus was recovered from the culture supernatant after 48 hours of culturing.

P95/nucleolin = P95/nucleolin (Homo sapiens, UniProt P19338); test: Saturation of binding sites of P95/nucleolin
Chain of P95/nucleolin (P19338 whole entry): as above

MOLT4 cells = test: FACS binding of FITC-labeled TASP after protease treatment of cells; set-up: species or system human
Method: as §1
Protease treatment of CEM and MOLT cells was essentially as described previously (Borrow et al., 1992) with slight modifications. Briefly, cells were washed in PBS and in RPMI-1640 medium containing 1 mM EDTA before treatment with trypsin (Sigma; 2.5 mg/ml at 20° C. for 5 min), proteinase K (Bohringer Mannhein GmbH, Germany; 0.2 mg/ml at 37° C. for 30 min), or pronase E (Sigma, 0.1 mg/ml at 37° C. for 45 min). The reactions were stopped by 10 fold dilutions in RPMI-1640 containing 10% fetal calf serum. Cells were then washed in PBS and in FACS buffer, and processed for FACS analysis.
The expression of CD4 and CD26 in control cells (not treated with different proteases) was considered as 100%. Consequently the % positive cells after protease treatment were estimated by comparison with the untreated cells.

[5] = Stability of TASP constructs in serum (residual activity to bind the cell-surface ligand); assay type: in vitro ADME
HIV-1 JRCSF = test: HIV entry into HeLa P4-C5 cells (β-galactosidase), HIV-1 JRCSF; assay type: cell-based; conditions: HeLa P4-C5, HIV-1 JRCSF; read-out: IC50, inhibition of HIV entry

Substance: 5[Kψ(CH2N)PR]-TASP
- effect on VSV-HIV pseudotyped virus entry and replication (VSV/HIV): had no effect
- binding of 125I-labeled gp120 to CEM cells (CD4^+ CEM cells; 20 mM of TASP): not affected
- binding of 125I-labeled gp120 to CEM cells (CD4^+ CEM cells; higher concentrations of TASP (40, 80 μM)): slight inhibition
- IC50 [1]: 50 to 500 nM
- inhibition of virus production (HIV-1 Lai [2]; 5 mM added one hour before or together with the virus): more than 90%
- inhibitory effect when added at 8 hours p.i. (HIV-1 Lai [2]; CEM cells): almost no effect
- HIV entry monitored by intracellular concentration of p24 (HIV-1 Lai [2]; CEM cells, 1 hour incubation with virus, 5-10 μM): inhibited almost completely
- combined action with AZT against an HIV infection (HIV-1 Lai [2]; CEM cells, HIV-1 Lai, p24 at 4 days p.i.): synergistic action
- IC50 (HIV-1 Lai [2]; CEM cells, construct added 15 min before HIV-1, p24 at 4 days p.i., read-out: Inhibition of HIV infection (IC50), 50% dose): 500 nM
- inhibition of HIV-1 Lai infection in CEM cells (HIV-1 Lai [2]; TASP 5 μM, p24 at 5 days p.i.): more than 95%
- inhibition of virus infection (HIV-1 Lai [2]; TASP 10 μM, mAb OKT4A 10 mg/ml): complete inhibition
- higher activity compared to non-reduced counterpart 5[KPR]-TASP (HIV-1 Lai [2]; both inhibition of HIV infection and affinity to bind the cell-surface ligand): ≥ 10 fold
- inhibition of viral entry monitored by β-galactosidase activity in HeLa/CD4^+ cells (HIV-1 Lai [3]; 5-10 μM): at least 90%
- inhibition of HIV-1 LAI infection in HeLa cells (HIV-1 Lai [3]; 37° C. in culture medium, 0.1-1 μM): more than 90%
- effect on SIVmac entry (SIVmac): only a slight effect; also recorded: no significant effect
- EC50 (CEM cells): 150 nM
- IC50 (HIV-1 Bal): 300 nM
- effect on HIV-1 Ada-M infection of PBMC (HIV-1 Ada-M): no effect
- isolation of cell-surface P95 abolished by excess unlabeled construct (cell-surface P95): completely abolished
- effect on infection by HIV-1 pseudotyped Mo-MLV virus [4]: no significant effect
- concentration for 100% saturation of the binding sites (P95/nucleolin): 2 µM
- Cell-surface expression (% positive cells), TASP-Ligand (MOLT4 cells; after Pronase E treatment): 8%
- Cell-surface expression (% positive cells), TASP-Ligand (MOLT4 cells; after Proteinase K treatment): 15%
- Cell-surface expression (% positive cells), TASP-Ligand (MOLT4 cells; after Trypsin treatment): 92%
- activity retained after 18 hours of incubation in serum [5]: more than 80%
- inactivated after 18 hours of incubation in sera [5]: less than 20%
- IC50 (HIV-1 JRCSF): 300 nM
